Data as given in US8815881B2 (Hoffmann-La Roche Inc., priority 2010, dated 2014).

molecular target: BACE2 enzyme ectodomain (Homo sapiens (Human), UniProt Q9Y5Z0); test: Fluorescent-peptide cleavage assay for BACE2 inhibition; format: biochemical; settings: assay b): fluorescent-peptide cleavage, pH 4.5 (superscript b)
Procedure: b) Fluorescent-Peptide Cleavage Assay for BACE2 Inhibition
BACE2 enzyme ectodomain (derived from plasmid “pET17b-T7-hu proBACE2”) was prepared as described in Ostermann et al., “Crystal Structure of Human BACE2 in Complex with a Hydroxyethylamine Transition-state Inhibitor”, Journal of Molecular Biology 2006, 355, 249-261. The pro-enzyme was stored at 4° C. at a concentration of 70 μg/ml.
A fluorescent peptide with the amino acid sequence WS EVNLD AEFRC-MR121 was synthesised and a stock solution of 1.5 mM in DMSO prepared and stored at −20° C. MR121 is a fluorophore with an excitation wavelength of 630 nm and emission wavelength of 695 nm. The MR121 fluorescence is quenched by the N-terminal tryptophan until the peptide is cleaved by BACE2.
Assays were all made in a Corning 384-well black polystyrene non-binding surface microtitre plate with clear flat bottom and using a Plate:Vision (Perkin Elmer) fluorescence reader. To perform the assay an 80 nM solution of BACE2 was prepared in assay buffer (assay buffer is 100 mM Na-acetate; 20 mM EDTA; 0.05% BSA; pH 4.5) and incubated at room temperature for 1 hour to activate the enzyme. 39 μl of the activated BACE2 was placed in each assay well, followed by 1 μl compound to be tested at an appropriate concentration in 100% DMSO. The plate was then mixed and incubated for 10 minutes at room temperature. To start the assay, 10 μl of a 1.5 μM solution fluorescent peptide in assay buffer was added and the fluorescence intensity in the assay mixture measured at 695 nm with an excitation wavelength of 630 nm for 30 minutes.
The assay readout is the rate of change of fluorescence intensity giving a relative measure of BACE2 activity. Small values correspond to high inhibition and larger values to low inhibition. To determine IC50 values (i.e. the concentration inhibiting the enzyme activity by 50%) of the compound for BACE2, typically, 15 assays were made with a range of concentrations chosen empirically to give low, high and intermediate inhibition of the protease. IC50 values were determined using these assay values generated for a range of inhibitor concentrations and the curve fitting software XLfit (IDBS) using the Sigmoidal Dose-Response Model.

Sequence of BACE2 enzyme ectodomain (Q9Y5Z0 63-473): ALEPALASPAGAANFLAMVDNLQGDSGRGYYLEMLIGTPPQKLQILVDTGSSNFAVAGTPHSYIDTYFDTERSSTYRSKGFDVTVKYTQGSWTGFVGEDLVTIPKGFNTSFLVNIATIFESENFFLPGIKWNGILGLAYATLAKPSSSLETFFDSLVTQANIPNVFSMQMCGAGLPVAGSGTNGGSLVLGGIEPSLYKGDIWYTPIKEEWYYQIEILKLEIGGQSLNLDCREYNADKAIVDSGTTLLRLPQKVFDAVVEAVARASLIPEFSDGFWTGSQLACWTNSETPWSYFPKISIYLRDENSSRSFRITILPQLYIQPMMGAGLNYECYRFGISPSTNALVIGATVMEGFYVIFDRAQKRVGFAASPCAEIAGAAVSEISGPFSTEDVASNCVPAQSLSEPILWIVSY

SMILES	IC50
Cc1ccc(Nc2ccc(F)c([C@@]3(C)N=C(N)N(C)C(=O)C3(C)C)c2)cc1C#N [Example 169, 5-[3-((S)-2-Amino-1,4,5,5-tetramethyl-6-oxo-1,4,5,6-tetrahydro-pyrimidin-4-yl)-4-fluoro-phenylamino]-2-methyl-benzonitrile]	180 nM
Cc1ccc(Nc2ccc(F)c([C@@]3(C)N=C(N)N(C)C(=O)C3(C)C)c2)cn1 [Example 171, (S)-2-Amino-6-(2-fluoro-5-(6-methylpyridin-3-ylamino)phenyl)-3,5,5,6-tetramethyl-5,6-dihydropyrimidin-4(3H)-one]	1800 nM
CN1C(=O)C(C)(C)[C@@](C)(c2cc(Nc3ccc(C(F)(F)F)nc3)ccc2F)N=C1N [Example 173, (S)-2-Amino-6-(2-fluoro-5-(6-(trifluoromethyl)pyridin-3-ylamino)phenyl)-3,5,5,6-tetramethyl-5,6-dihydropyrimidin-4(3H)-one]	400 nM
CN1C(=O)C(C)(C)[C@@](C)(c2cc(Nc3cncc(C(F)(F)F)c3)ccc2F)N=C1N [Example 175, (S)-2-Amino-6-(2-fluoro-5-(5-(trifluoromethyl)pyridin-3-ylamino)phenyl)-3,5,5,6-tetramethyl-5,6-dihydropyrimidin-4(3H)-one]	250 nM

Now those with a lower IC50, led by results:

IC50	SMILES
140 nM	COc1ccc(Nc2ccc(F)c([C@@]3(C)N=C(N)N(C)C(=O)C3(C)C)c2)cn1 [Example 170, (S)-2-Amino-6-(2-fluoro-5-(6-methoxypyridin-3-ylamino)phenyl)-3,5,5,6-tetramethyl-5,6-dihydropyrimidin-4(3H)-one]
110 nM	CN1C(=O)C(C)(C)[C@@](C)(c2cc(Nc3ccc(OCC(F)(F)F)nc3)ccc2F)N=C1N [Example 172, (S)-2-Amino-6-(2-fluoro-5-(6-(2,2,2-trifluoroethoxy)pyridin-3-ylamino)phenyl)-3,5,5,6-tetramethyl-5,6-dihydropyrimidin-4(3H)-one]
150 nM	CN1C(=O)C(C)(C)[C@@](C)(c2cc(Nc3cncc(F)c3)ccc2F)N=C1N [Example 174, (S)-2-Amino-6-(2-fluoro-5-(5-fluoropyridin-3-ylamino)phenyl)-3,5,5,6-tetramethyl-5,6-dihydropyrimidin-4(3H)-one]
130 nM	CN1C(=O)C(C)(C)[C@@](C)(c2cc(Nc3ccc(Cl)nc3)ccc2F)N=C1N [Example 176, (S)-2-Amino-6-(5-(6-chloropyridin-3-ylamino)-2-fluorophenyl)-3,5,5,6-tetramethyl-5,6-dihydropyrimidin-4(3H)-one]
